Experimental data reported in PMC12073402, “A Selective MAP3K1 Inhibitor Facilitates Discovery of NPM1 as a Member of the Network” (Molecules, 2025).

Key:
Experiment in all cases: KiNativ kinome profiling in PANC-1 lysate
Assay type in all cases: binding
AAK1 = target: T1, AAK1 (Homo sapiens, UniProt Q2M2I8); conditions: Lys2
T1 construct: endogenous in cells; host or cells: PANC-1 cell lysate
Procedure, shortened: (§1)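 PANC-1 lysates were incubated with 5 μM inhibitor or DMSO, then labeled with a desthiobiotin-ATP acyl-phosphate probe that biotinylates conserved kinase lysines. Tryptic peptides were streptavidin-enriched and quantified by LC-MS/MS, reported as % change in MS signal from duplicate treated and duplicate control samples.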

ATR = target: T2, ATR (Homo sapiens, UniProt Q13535); conditions: ATP
T2 construct: endogenous in cells; host or cells: PANC-1 cell lysate
T2 sequence (Q13535 whole entry): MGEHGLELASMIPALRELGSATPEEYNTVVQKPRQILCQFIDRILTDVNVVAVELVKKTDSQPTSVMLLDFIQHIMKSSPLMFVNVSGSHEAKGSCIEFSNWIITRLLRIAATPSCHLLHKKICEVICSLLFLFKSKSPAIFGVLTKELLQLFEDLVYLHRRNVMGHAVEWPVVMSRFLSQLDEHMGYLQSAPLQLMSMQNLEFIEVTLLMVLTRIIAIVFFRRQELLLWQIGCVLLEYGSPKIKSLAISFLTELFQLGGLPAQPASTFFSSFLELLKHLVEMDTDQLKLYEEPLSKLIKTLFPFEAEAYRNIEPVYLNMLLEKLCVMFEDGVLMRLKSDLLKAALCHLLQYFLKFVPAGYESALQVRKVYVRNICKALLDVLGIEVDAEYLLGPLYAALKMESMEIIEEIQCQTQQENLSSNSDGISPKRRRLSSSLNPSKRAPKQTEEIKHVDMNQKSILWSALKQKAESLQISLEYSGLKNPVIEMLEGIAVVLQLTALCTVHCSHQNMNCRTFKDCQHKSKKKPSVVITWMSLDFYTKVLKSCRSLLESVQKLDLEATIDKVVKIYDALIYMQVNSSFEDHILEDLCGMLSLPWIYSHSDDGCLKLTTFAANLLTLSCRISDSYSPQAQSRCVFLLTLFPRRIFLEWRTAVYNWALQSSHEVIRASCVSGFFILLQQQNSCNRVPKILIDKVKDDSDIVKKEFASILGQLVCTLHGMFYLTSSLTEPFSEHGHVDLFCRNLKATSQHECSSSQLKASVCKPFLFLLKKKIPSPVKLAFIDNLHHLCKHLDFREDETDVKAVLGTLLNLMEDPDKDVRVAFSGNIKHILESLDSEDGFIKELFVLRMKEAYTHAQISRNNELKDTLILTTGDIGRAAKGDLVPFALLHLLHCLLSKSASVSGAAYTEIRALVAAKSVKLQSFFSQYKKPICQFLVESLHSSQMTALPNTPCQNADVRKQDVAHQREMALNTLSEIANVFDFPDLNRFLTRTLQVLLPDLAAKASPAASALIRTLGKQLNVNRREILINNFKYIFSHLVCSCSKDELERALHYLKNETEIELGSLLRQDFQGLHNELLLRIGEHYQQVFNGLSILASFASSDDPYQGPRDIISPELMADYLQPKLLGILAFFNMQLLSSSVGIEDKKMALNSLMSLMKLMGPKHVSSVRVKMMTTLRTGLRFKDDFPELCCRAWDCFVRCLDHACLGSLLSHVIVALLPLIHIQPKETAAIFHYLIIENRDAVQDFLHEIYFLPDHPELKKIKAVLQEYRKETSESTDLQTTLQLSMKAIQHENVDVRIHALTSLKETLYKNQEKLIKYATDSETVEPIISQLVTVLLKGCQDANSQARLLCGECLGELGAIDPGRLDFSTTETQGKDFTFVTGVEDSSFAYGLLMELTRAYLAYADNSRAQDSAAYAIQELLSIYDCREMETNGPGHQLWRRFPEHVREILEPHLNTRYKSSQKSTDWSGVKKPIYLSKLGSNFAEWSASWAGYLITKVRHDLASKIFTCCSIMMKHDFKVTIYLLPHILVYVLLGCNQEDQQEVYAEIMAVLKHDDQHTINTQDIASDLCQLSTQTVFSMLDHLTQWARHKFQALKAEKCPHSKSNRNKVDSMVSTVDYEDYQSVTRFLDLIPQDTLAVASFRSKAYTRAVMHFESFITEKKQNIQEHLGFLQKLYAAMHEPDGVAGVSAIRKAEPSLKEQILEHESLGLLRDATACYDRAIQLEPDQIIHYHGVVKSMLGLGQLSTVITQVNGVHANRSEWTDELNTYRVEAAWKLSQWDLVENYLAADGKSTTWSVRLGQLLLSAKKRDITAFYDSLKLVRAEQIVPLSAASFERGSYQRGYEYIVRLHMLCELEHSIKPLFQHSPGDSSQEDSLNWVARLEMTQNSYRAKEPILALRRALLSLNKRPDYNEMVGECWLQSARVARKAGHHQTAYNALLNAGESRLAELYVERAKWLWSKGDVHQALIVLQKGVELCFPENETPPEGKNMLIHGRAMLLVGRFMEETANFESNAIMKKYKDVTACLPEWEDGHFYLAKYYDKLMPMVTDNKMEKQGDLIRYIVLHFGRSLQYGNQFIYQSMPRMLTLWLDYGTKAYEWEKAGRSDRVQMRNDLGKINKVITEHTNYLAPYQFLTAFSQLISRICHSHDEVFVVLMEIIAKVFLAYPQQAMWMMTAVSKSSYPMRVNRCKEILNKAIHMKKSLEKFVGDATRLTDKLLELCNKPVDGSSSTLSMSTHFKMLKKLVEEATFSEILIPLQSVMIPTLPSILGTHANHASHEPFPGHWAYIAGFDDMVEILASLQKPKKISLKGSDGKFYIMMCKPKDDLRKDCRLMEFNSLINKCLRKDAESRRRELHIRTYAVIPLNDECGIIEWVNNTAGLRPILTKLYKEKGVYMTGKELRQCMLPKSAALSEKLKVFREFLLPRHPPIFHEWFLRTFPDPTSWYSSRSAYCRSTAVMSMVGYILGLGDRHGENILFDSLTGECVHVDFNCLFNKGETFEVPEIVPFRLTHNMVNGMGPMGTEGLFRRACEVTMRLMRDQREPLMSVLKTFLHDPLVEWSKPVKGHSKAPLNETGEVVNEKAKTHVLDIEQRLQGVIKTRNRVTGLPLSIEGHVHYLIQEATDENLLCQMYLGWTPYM
Procedure, shortened: as §1

AXL = target: T3, AXL (Homo sapiens, UniProt P30530); conditions: Activation Loop
T3 construct: endogenous in cells; host or cells: PANC-1 cell lysate
Procedure, shortened: as §1

CDK10 = target: T4, CDK10 (Homo sapiens, UniProt Q15131); conditions: Lys2
T4 construct: endogenous in cells; host or cells: PANC-1 cell lysate
Procedure, shortened: as §1

CLK3 = target: T5, CLK3 (Homo sapiens, UniProt P49761)
T5 construct: endogenous in cells; host or cells: PANC-1 cell lysate
T5 sequence (P49761 whole entry): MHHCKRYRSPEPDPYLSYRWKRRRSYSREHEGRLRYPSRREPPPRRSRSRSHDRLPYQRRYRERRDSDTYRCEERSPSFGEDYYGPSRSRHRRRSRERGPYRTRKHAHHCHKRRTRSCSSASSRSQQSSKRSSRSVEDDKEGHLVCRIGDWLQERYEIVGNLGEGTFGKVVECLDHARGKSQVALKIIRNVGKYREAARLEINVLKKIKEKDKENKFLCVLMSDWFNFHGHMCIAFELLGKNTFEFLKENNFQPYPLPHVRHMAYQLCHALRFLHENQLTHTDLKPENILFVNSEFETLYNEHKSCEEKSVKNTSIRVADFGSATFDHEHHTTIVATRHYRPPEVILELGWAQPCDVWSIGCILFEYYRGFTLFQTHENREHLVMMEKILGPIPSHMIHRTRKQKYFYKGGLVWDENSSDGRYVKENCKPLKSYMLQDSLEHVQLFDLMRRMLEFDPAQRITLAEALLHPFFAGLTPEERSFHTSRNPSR
Procedure, shortened: as §1

CaMK1d = target: T6, CaMK1d (Homo sapiens, UniProt Q8IU85)
T6 construct: endogenous in cells; host or cells: PANC-1 cell lysate
T6 sequence (Q8IU85 whole entry): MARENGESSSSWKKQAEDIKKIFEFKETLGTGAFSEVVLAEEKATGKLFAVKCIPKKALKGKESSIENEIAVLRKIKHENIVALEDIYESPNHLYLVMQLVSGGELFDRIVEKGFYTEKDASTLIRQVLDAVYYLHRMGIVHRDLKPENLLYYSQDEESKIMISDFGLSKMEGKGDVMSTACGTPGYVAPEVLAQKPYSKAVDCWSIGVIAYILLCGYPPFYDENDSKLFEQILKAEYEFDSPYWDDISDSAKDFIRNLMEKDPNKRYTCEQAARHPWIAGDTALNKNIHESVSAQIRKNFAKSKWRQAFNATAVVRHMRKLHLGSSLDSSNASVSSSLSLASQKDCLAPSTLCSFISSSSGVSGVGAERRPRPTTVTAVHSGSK
Procedure, shortened: as §1

CaMK2d = target: T7, CaMK2d (Homo sapiens, UniProt Q13557); conditions: Lys1
T7 construct: endogenous in cells; host or cells: PANC-1 cell lysate
Procedure, shortened: as §1

DGKH = target: T8, DGKH (Homo sapiens, UniProt Q86XP1); conditions: ATP
T8 construct: endogenous in cells; host or cells: PANC-1 lysate
Procedure, shortened: as §1

Erk5 = target: T9, Erk5 (Homo sapiens, UniProt Q13164); conditions: Lys2
T9 construct: endogenous in cells; host or cells: PANC-1 lysate
Procedure, shortened: as §1

FRK = target: T10, FRK (Homo sapiens, UniProt P42685); conditions: ATP Loop
T10 construct: endogenous in cells; host or cells: PANC-1 lysate
T10 sequence (P42685 whole entry): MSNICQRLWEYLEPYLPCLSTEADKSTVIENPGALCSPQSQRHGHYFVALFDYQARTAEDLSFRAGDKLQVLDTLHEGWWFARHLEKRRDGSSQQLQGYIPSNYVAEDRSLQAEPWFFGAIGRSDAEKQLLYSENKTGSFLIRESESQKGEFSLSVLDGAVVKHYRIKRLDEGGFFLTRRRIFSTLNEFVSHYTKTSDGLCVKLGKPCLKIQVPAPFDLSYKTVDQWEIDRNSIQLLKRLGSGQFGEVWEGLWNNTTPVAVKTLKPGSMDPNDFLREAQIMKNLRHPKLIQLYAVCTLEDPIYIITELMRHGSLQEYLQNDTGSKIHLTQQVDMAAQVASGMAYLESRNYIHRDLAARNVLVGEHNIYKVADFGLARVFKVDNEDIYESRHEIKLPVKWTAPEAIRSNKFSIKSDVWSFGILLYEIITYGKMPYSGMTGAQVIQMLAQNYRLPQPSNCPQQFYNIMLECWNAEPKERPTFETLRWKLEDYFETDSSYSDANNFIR
Procedure, shortened: as §1

MARK3 = target: T11, MARK3 (Homo sapiens, UniProt P27448); conditions: Lys1
T11 construct: endogenous in cells; host or cells: PANC-1 cell lysate
Procedure, shortened: as §1

PAN3 = target: T12, PAN3 (Homo sapiens, UniProt Q58A45); conditions: ATP
T12 construct: endogenous in cells; host or cells: PANC-1 cell lysate
T12 sequence (Q58A45 whole entry): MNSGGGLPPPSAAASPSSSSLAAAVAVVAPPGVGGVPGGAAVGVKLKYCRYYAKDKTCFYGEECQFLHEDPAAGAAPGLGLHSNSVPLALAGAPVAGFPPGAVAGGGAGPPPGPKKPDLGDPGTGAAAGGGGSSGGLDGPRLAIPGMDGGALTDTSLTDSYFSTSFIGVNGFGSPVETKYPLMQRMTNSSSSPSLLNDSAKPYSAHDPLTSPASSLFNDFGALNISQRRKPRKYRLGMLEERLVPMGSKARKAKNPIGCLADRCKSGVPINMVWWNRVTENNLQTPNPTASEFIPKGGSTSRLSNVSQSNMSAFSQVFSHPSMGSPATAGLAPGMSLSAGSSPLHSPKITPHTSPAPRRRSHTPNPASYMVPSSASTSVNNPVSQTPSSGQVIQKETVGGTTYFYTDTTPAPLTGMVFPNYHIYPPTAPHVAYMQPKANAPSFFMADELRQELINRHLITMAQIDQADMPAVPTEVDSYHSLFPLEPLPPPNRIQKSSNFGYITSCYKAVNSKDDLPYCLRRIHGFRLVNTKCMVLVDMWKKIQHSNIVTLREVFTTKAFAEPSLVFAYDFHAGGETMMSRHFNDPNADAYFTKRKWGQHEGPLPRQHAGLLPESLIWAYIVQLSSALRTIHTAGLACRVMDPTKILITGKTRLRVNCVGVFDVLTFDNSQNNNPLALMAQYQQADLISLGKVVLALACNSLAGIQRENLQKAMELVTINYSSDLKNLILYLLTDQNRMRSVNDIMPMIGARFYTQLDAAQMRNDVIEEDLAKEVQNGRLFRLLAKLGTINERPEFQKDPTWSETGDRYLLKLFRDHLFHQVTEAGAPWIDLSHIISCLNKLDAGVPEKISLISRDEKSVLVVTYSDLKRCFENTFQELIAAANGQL
Procedure, shortened: as §1

TLK1 = target: T13, TLK1 (Homo sapiens, UniProt Q9UKI8); conditions: Lys2
T13 construct: endogenous in cells; host or cells: PANC-1 cell lysate
Procedure, shortened: as §1

ULK1 = target: T14, ULK1 (Homo sapiens, UniProt O75385); conditions: Lys2
T14 construct: endogenous in cells; host or cells: PANC-1 cell lysate
Procedure, shortened: as §1

Cn1cc(-c2cnc3ccc(NC(=O)Nc4ccc(F)c(C(F)(F)F)c4)cc3n2)cn1 [51-106, 1-(4-Fluoro-3-(trifluoromethyl)phenyl)-3-(3-(1-methyl-1H-pyrazol-4-yl)quinoxalin-6-yl)urea]
inhibition at 5 µM (AAK1): 3.5% | inhibition at 5 µM (ATR): 2.2% | inhibition at 5 µM (AXL): ≤ 0% | inhibition at 5 µM (CDK10): 10.3% | inhibition at 5 µM (CLK3; ATP Loop, YEIVGNLGEGTFGKVVECLDHAR): ≤ 0% | inhibition at 5 µM (CLK3; Lys2, FLHENQLTHTDLKPENILFVNSEFETLYNEHK): 4.4% | inhibition at 5 µM (CaMK1d; Lys1, LFAVKCIPK): 30.3% | inhibition at 5 µM (CaMK1d; Lys2, DLKPENLLYYSQDEESK): ≤ 0% | inhibition at 5 µM (CaMK2d): ≤ 0% | inhibition at 5 µM (DGKH): ≤ 0% | inhibition at 5 µM (Erk5): 11.6% | inhibition at 5 µM (FRK): ≤ 0% | inhibition at 5 µM (MARK3): ≤ 0% | inhibition at 5 µM (PAN3; IQKSSNFGYITSCYK): ≤ 0% | inhibition at 5 µM (PAN3; VMDPTKILITGK): 4.4% | inhibition at 5 µM (TLK1): 6.2% | inhibition at 5 µM (ULK1): ≤ 0%
